Patent US20050222027A1, “Modulation of complement to treat pain” (Euro-Celtique S.A., priority 2003, published 2005)
Entries after “also recorded” stand apart in the source; their conditions may differ.

Legend:
[1] = test system: spinal nerve ligation (SNL) model of neuropathic pain; test: Paw pressure test (paw withdrawal threshold) in the SNL model of neuropathic pain; type: in vivo, rat
Excerpt: Rats having the L5-L6 spinal nerves ligated (SNL) according to the method of Kim and Chung, Pain 1992; 50:355-63 were used in this experiment. Briefly, nerve injury was induced by tight ligation of the left L5 and L6 spinal nerves, producing symptoms of neuropathic pain as described below. The advantage of this model is that it allows the investigation of dorsal root ganglia that are injured (L5 and L6) versus dorsal root ganglia that are not injured (L4). Thus, it is possible to see changes in gene expression specifically in response to nerve injury.
Surgery was performed under isoflurane/O2 inhalation anesthesia. Following induction of anesthesia, a 3 cm incision was made just lateral to the spinal vertebrae. The left paraspinal muscles were separated from the spinous process at the L4-S2 levels. The L6 transverse process was carefully removed with a pair of small rongeurs to visually identify the L4-L6 spinal nerves. The left L5 and L6 spinal nerves were isolated and tightly ligated with 7-0 silk suture. A complete hemostasis was confirmed, and the wound was sutured using […] sutures, such as 4-0 Vicryl.
Mechanical sensitivity was assessed using the paw pressure test. This test measures mechanical hyperalgesia. Hind paw withdrawal thresholds (“PWT”) (measured in grams) in response to a noxious mechanical stimulus were determined using an analgesymeter (Model 7200, commercially available from Ugo Basile of Italy), as described in Stein, Biochemistry & Behavior 1988; 31: 451-455. […] PWT was determined once for each rat at each time point, and only the injured ipsilateral paw (i.e., the hind paw on the same side of the animal as the ligation in SNL animals, or the side of the animal where the nerve was exposed but not injured in sham-operated animals) was used in the test. […]
The timeline for the general method of surgery followed by CVF injection is outlined in FIG. 8. […] Pain behavior was measured using the paw pressure test as described in Example 1 above. C3 activity was measured by the hemolysis assay before and after animals received CVF as described below.

C3 = test: Hemolysis assay measuring C3 activity in serum of rats given CVF; type: in vivo, rat
Excerpt: A variety of methods well-known in the art can be used to determine at least one activity of a complement component. As described in the Examples Section below, the hemolysis assay can be used to measure the activity of C3 in the serum from blood samples. In the hemolysis assay, erythrocytes are sensitized by coating these erythrocytes with antibodies against red blood cells. Next, the sensitized erythrocytes, C3-depleted serum, and a blood sample to be tested for C3 activity are combined and incubated. During incubation, the complement pathway proceeds on the surface of the erythorcytes using complement components from the C3-depleted serum and C3 from the blood sample. This pathway can result in the formation of a sufficient number of MAC pores to induce erythorcyte lysis and hemoglobin release. The optical density at 540 run is then measured to determine the quantity of free hemoglobin in solution as a result of erythrocyte lysis. Since erythrocyte lysis is a result of complement activation and the presence of C3, the optical density at 540 nm is a measure of the activity of C3 in the blood sample.
To determine the effect of CVF on complement C3 activity, naïve animals were injected with CVF on days 0, 3, and 6. C3 activity was measured using the hemolysis assay before and after CVF injections as described below.
The timeline for the general method of surgery followed by CVF injection is outlined in FIG. 8. Spinal nerve ligation (SNL) was performed on Sprague-Dawley rats as described above in Example 1. On day 0, SNL surgery was performed on 20 rats and sham surgery was performed on 20 rats. At days 23 and 26 post surgery, 10 SNL and 10 sham animals (designated herein as SNL-CVF and Sham-CVF, respectively) were injected (ip) with CVF (350 units/kg). In addition, as controls, 10 SNL and 10 sham animals (designated herein as SNL-saline and Sham-saline, respectively) were given saline injections (ip). Five animals from each group were terminated on day 29. The remaining five animals were terminated on day 39. Pain behavior was measured using the paw pressure test as described in Example 1 above. C3 activity was measured by the hemolysis assay before and after animals received CVF as described below.
The sensitization of sheep erythrocytes and the hemolysis assay to measure C3 activity were performed according to the Quidel Technical Bulletin entitled Measurement of C3 function in non-primate sera by hemolytic assay (Quidel Corporation, Santa Clara, Calif.). References within this protocol are the following: DeSautel and Brode, Laryngoscope 1999, 109:1674-8; Kirshfink, The Complement System 1998, Rother and Till eds, Springer Verlag Berlin Heidelberg, 522-547; Mollnes, Complement and Complement Receptors 1997, Weir ed, 78.1-78.6; Porcel et al., J. Immunol Method. […]

Substance: CVF
- Pain tolerance (withdrawal threshold to a mechanical stimulus) versus SNL animals injected with saline ([1]; SNL rats treated with CVF compared to SNL saline control): chronic pain is alleviated; also recorded: higher pain tolerance
- Pain behavior (paw withdrawal threshold) of SNL-CVF animals by day 29 ([1]; SNL rats, CVF 350 units/kg ip on days 23 and 26 post surgery, day 29, FIG. 9): not significantly different than Sham-saline or Sham-CVF animals
- Pain behavior (paw withdrawal threshold) of SNL-CVF animals by day 31 ([1]; SNL rats, CVF 350 units/kg ip on days 23 and 26 post surgery, day 31, FIG. 9): returned to day 23 levels
- C3 complement activity levels on day 39 (C3; CVF 350 units/kg ip on days 23 and 26 post surgery, day 39, FIG. 10C): returned to pre-surgery and day 23 levels
- C3 activity levels relative to pre-surgery and day 23 (C3; CVF treated animals (350 units/kg ip on days 23 and 26 post surgery), days 28 and 29, FIG. 10B): below 20%
- C3 activity (hemolysis assay) after CVF treatment (C3; SNL and sham surgery rats injected with CVF or saline, FIGS. 10B and 10C): C3 activity decreases after CVF treatment in both SNL and sham surgery animals
- C3 activity (hemolysis assay, optical density at 540 nm) after CVF treatment (C3; naïve rats, CVF given on days 0, 3 and 6, measured at 0, 3, 6, 7, 8 and 12 days, FIG. 10A): return to pre-dosing levels by day 8; also recorded: C3 activity decreases
